Columns and labels:
CYP2D6 = target: T1, CYP2D6 (Homo sapiens, UniProt P10635); assay: Cytochrome profiling CYP2D6 (baculosomes); format: in vitro ADME; conditions: probe fluorogenic probe substrate (not named), 10 μM substrate
T1 construct: host or cells: insect cells infected with recombinant baculovirus (microsomes)
Text: (§1) Cytochrome P450 (abbreviated CYP, P450 or CYP450) belong to very large and diverse superfamily of haemoproteins which accept both exogenous and endogenous compounds as substrates in enzymatic reactions and play a major role in drug metabolism. Although this class has more than 50 enzymes just 5 of them (CYP1A2, CYP2C9, CYP2C19, CYP2D6 and CYP3A4) are able to metabolise almost 90% of all drugs. Inhibition of these enzymes is one of the major reasons for drug-drug interactions. Consequently, detailed CYP inhibition profiles are a regulatory requirement for all new drugs. Inhibition potencies against the five most relevant CYP isoforms is performed using baculosomes; microsomes prepared from insect cells infected with recombinant baculovirus containing cDNA for a specific human P450 isozyme. The baculosomes are incubated with drug at a concentration of 1 μM in the presence of a probe substrate for 60 minutes at 37° C. The probe is normally metabolised by the baculosomes to produce a fluorescent metabolite. A substrate drug will compete for the isozyme and reduce the metabolism of the probe resulting in a decrease in the fluorescent signal. The percent inhibition due to the presence of the test compound is calculated using the following equation: [formula] • X=fluorescent intensity observed in the presence of test compound • A=fluorescent intensity observed in control • B=fluorescent intensity observed in the presence of the probe control

CYP2C19 = target: T2, CYP2C19 (Homo sapiens, UniProt P33261); assay: Cytochrome profiling CYP2C19 (baculosomes); format: in vitro ADME; conditions: probe fluorogenic probe substrate (not named), 10 μM substrate
T2 construct: host or cells: insect cells infected with recombinant baculovirus (microsomes)
T2 sequence (P33261 whole entry): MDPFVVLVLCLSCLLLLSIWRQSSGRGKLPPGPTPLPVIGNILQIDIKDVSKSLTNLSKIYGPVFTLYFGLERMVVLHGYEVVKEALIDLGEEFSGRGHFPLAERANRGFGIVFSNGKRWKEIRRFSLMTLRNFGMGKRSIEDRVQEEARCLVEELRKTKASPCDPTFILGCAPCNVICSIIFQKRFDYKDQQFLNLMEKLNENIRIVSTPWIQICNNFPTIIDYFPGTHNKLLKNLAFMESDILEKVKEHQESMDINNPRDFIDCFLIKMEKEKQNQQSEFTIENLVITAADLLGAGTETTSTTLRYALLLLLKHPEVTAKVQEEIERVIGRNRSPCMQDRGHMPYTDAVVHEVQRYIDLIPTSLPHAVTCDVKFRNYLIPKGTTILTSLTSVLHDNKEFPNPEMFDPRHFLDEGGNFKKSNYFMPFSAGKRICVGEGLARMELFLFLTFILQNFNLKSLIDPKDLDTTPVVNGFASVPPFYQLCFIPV
Text: as §1

CYP3A4 = target: T3, CYP3A4 (Homo sapiens, UniProt P08684); assay: Cytochrome profiling CYP3A4 (baculosomes); format: in vitro ADME; conditions: probe fluorogenic probe substrate (not named), 10 μM substrate
T3 construct: host or cells: insect cells infected with recombinant baculovirus (microsomes)
T3 sequence (P08684 whole entry): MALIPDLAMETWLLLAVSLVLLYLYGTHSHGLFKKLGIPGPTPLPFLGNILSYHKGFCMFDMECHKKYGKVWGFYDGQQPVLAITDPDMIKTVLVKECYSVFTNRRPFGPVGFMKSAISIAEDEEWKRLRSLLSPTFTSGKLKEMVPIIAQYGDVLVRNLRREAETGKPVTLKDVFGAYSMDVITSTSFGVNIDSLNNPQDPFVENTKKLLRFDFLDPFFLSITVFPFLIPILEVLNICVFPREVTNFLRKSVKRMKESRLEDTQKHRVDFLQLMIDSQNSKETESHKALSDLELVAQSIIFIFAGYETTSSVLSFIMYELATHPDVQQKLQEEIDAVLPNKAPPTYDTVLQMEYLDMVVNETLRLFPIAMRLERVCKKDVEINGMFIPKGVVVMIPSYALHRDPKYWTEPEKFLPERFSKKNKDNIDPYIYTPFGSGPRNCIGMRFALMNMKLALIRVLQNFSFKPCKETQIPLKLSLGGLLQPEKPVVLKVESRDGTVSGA
Text: as §1

[1] = system: ATP-induced IL-1β secretion in PBMCs; assay: IL-1β ELISA in patient-derived PBMCs/monocytes (STEMI and controls); format: cell-based, human; conditions: pre-incubated with 1 μmol/L compound
Text: The role of inflammation in cardiovascular disease processes was explored. Patients that were admitted to the Royal North Shore Hospital, Sydney, Australia for clinically indicated cardiac catheterisation were consented for the study. These patients were subdivided according to their clinical presentation: • 1. Patients presenting with STEMI, characterised by recent-onset chest pain, ECG changes and/or raised cardiac enzymes. • 2. Age and sex-matched control patients with no evidence of coronary stenosis on angiography.
Patients were excluded from the study if they were taking anti-inflammatory medications, or if they had clinical or biochemical evidence of active infection or inflammation.
20 mL of blood was collected from the arterial sheath into an EDTA-coated tube. Samples were immediately diluted 1:1 in phosphate buffered saline (PBS) and layered on top of Ficoll-Paque for gradient separation. Samples were centrifuged at […] for 15 minutes. […]
(§2) Changes in secreted and intracellular levels of IL-1β were measured by ELISA (RnD systems). Samples were diluted 1 in 2 in commercial diluent, assayed according to manufacturer's instructions and detected at 450/570 nm.
Peripheral blood mononuclear cells (PBMCs) were collected from 19 STEMI patients at the time of infarct, and 3 healthy controls. […] IL-1β levels were measured by ELISA.

[2] = system: secreted IL-1β in THP-1 monocytic cells; assay: IL-1β dose-response testing in THP-1 monocytic cell line; format: cell-based; conditions: Homo sapiens; THP-1 treated with interferon-γ and lipopolysaccharide 3 hours, compound 1-1000 nM, ATP stimulation; read-out: LogEC50, secreted IL-1β (converted)
Procedure: Supernatant was collected to measure the level of secreted IL-1β.
Cells were plated in 48-well Corning cell-bind plates at 2×10^5 cells/well, and treated with recombinant human interferon-γ (10 ng/mL) and lipopolysaccharide (25 ng/mL) for 3 hours. […] Supernatant was collected to measure the level of secreted IL-1ß.
as §2

T1 sequence (P10635 whole entry): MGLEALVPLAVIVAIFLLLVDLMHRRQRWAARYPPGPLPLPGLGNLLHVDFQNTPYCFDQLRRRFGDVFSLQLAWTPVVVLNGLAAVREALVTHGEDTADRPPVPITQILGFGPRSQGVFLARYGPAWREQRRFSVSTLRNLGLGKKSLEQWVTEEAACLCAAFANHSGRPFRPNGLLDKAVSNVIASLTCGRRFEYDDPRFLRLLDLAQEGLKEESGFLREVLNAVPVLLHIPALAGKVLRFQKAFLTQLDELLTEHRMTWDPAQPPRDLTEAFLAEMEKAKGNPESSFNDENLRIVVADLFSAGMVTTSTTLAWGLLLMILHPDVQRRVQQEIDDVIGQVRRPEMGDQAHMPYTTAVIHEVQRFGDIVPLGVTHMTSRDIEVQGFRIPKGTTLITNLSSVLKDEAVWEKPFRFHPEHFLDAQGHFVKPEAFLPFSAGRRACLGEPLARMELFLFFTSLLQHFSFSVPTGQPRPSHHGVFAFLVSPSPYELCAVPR

Row | SMILES | inhibition at 60 min, 1 μM (CYP2D6) | inhibition at 60 min, 1 μM (CYP2C19) | inhibition at 60 min, 1 μM (CYP3A4) | secreted IL-1β after ATP stimulation, STEMI PBMCs ([1]; STEMI patients' PBMCs) | secreted IL-1β after ATP stimulation, control PBMCs ([1]; healthy controls' PBMCs) | EC50 [2]
1 | COc1ccc(Cl)c(C(=O)NCC23CC4(F)CC(F)(CC(F)(C4)C2)C3)c1 [Compound 1, 2-Chloro-N-((3,5,7-trifluoroadamantan-1-yl)methyl)-5-methoxybenzamide] | -29.1% | 12.9% | 89.9% | 13.9±2.4 | 7.5±2.8 | 8.53 nM
2 | COc1ccc(Cl)c(C(=O)NCC23CC4CC(F)(CC(F)(C4)C2)C3)c1 [Compound 2, 2-Chloro-N-((3,5-difluoroadamantan-1-yl)methyl)-5-methoxybenzamide] | -25.3% | 1.5% | 89.9% |  |  | 
3 | COc1ccc(Cl)c(C(=O)NCC23CC4CC(CC(F)(C4)C2)C3)c1 [Compound 3, 2-Chloro-N-((3-fluoroadamantan-1-yl)methyl)-5-methoxybenzamide] | -28.9% | 46.9% | 88.8% |  |  | 
4 | COc1ccc(Cl)c(C(=O)NCC23CC4CC(CC(C4)C2)C3)c1 [Compound 31, reference compound] | -47.3% | 84.4% | 84.4% |  |  | 
